Results reported in patent publication US6362166B1, “Antipicornaviral compounds and methods for their use and preparation” (Agouron Pharmaceuticals, Inc., priority 1996, dated 2002).
Like-named read-outs stand apart in the source and are kept apart here.

What was measured:
[1] = Cytotoxicity in mock-infected HI-HeLa cells (antirhinoviral assay, XTT); type: cell-based; details: human; mock-infected HI-HeLa cells; two days; XTT; read-out: CC50
Description: (§1) HI-HeLa cells were infected with HRV-14 at a multiplicity of infection (m.o.i.) of 0.13 (virus particles/cell) or mock-infected with medium only. Infected or mock-infected cells were resuspended at 8×10^5 cells per mL and incubated with appropriate concentration of compounds of formulas I and II. Two days later, XTT/PMS was added to test plates and the amount of formazan produced was quantified spectrophotometrically at 450/650 nm. […] The therapeutic index (TI) was calculated by dividing the CC50 by the EC50.
(§2) All strains of human rhinovirus (HRV) for use in this assay were purchased from American Type Culture Collection (ATCC), except for HRV serotype-14, which was produced from the infectious cDNA clone, constructed and supplied to us by Dr. Roland Rueckert at the Institue for Molecular Virology, University of Wisconsin, Madison, Wisc. HRV stocks were propagated, and antiviral assays were perforemd in HI-HeLa cells (ATCC). Cells were grwon in Minimal Essential Medium, available from Life Technologies, with 10% fetal bovine serum.

[2] = molecular target: T1, Recombinant Rhinovirus 3C protease (RVP) serotype-14 (Human rhinovirus 14, UniProt P03303); test: Inhibition of Rhinovirus Protease (fluorescence resonance energy transfer assay), serotype 14; type: biochemical, human rhinovirus (HRV); details: for kinact/KI: pH 7.6, read-out: kobs/I; for kobs/I: progress curves in enzyme start experiments; for INHIB (percent inhibition): 10 minute preincubation with 50 nM RVP
T1 construct: Recombinant Rhinovirus 3C proteases from serotypes 14, 16, 2 or 89; made in house
Description: Stock solution (50 mM, in DMSO) of various compounds were prepared; dilutions were in the same solvent. […] Assays contained 2% DMSO, 50 mM tris pH 7.6, 1 mM EDTA, a compound at the indicated concentrations, approximately 1 μM substrate, and 50-100 nM protease. […] The kobs/I values were obtained from reactions initiated by addition of enzyme rather than substrate. RVP activity is measured in the fluorescence resonance energy transfer assay. […] In the uncleaved peptide, the EDANS fluorescence was quenched by the proximal DABCYL moeity. When the peptide was cleaved, the quenching was relieved, and activity was measured as an increase in fluorescence signal.
In the above table, all data is RVP serotype-14 unless otherwise noted in parentheses. All strains of human rhinovirus (HRV) were purchased from American Type Culture Collection (ATCC), except for serotype 14, which was produced from the infectious cDNA clone constructed and supplied to us by Dr. Roland Rueckert at the Institute for Molecular Virology, University of Wisconsin, Madison, Wisc. […] The data in the column designated kobs/I was measured from progress curves in enzyme start experiments.

HRV-14 = test: Antirhinoviral HI-HeLa Cell Culture Assay (Cell Protection Assay, XTT dye reduction); type: cell-based, human rhinovirus (HRV) serotype-14; details: HI-HeLa cells infected with HRV-14, m.o.i. 0.13, two days, XTT, read-out: EC50
Description: In the Cell Protection Assay, the ability of compounds to protect cells against HRV infection was measured by the XTT dye reduction method. This method is described in Weislow, O. S., R. Kiser, D. L. Fine, J. Bader, R. H. Shoemaker, and M. R. Boyd, J. Natl. Cancer Inst. 1989, 81, 577-586, which is incorporated herein by reference.
as §1, §2
The compounds were tested against control compounds WIN 51711, WIN 52084, and WIN 54954, all obtained from Sterling-Winthrop Pharmaceuticals, and control compound Pirodavir, obtained from Janssen Pharmaceuticals.

HI-HeLa cells = test: Cytotoxicity in mock-infected HI-HeLa cells (antirhinoviral assay, XTT); type: cell-based
Description: as §1, §2

[3] = mock-infected HI-HeLa cells, two days, XTT, read-out: CC50
[4] = RVP serotype-14, 10 μM compound
[5] = RVP serotype-14, 10 minute preincubation, substrate start, read-out: INHIB (Ki)

T1 sequence (P03303 1538-1719): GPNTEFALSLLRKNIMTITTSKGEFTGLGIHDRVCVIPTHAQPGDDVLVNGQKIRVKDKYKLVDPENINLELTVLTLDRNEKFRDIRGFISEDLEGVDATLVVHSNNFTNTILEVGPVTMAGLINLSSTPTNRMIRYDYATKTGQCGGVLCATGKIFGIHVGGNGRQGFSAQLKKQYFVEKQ

Compound	kobs/I ([2]; RVP serotype-14)	EC50 (HRV-14) [µM]	CC50 (HI-HeLa cells) [µM]	other results
CCOC(=O)/C=C/[C@H](CCC(N)=O)NC(=O)[C@H](Cc1ccccc1)NC(=O)[C@H](CC(C)C)NC(=O)OCc1ccncc1 [Compound 36]				CC50 at 2 days [1]: > 320 µM; Ki [2]: 15 µM; kinact/KI [2]: 12000 M⁻¹ s⁻¹; EC50 (HRV-14; Rhinovirus B, HRV14, 48 h): 5.6 µM
CCOC(=O)/C=C/[C@H](CCC(N)=O)NC(=O)[C@H](Cc1ccccc1)NC(=O)[C@@H](NC(=O)SCC)C(C)C [Compound 180]				CC50 at 2 days [1]: > 100 µM; Ki [2]: 0.42 µM; kinact/KI [2]: 300000 M⁻¹ s⁻¹; EC50 (HRV-14; Rhinovirus B, HRV14, 48 h): 0.056 µM
CCOC(=O)/C=C/[C@H](CCC(N)=O)NC(=O)[C@H](Cc1ccccc1)NC(=O)[C@H](CC(C)C)NC(C)=O [Compound 107]				CC50 at 2 days [1]: > 320 µM; Ki [2]: 13.5 µM; kinact/KI [2]: 3660 M⁻¹ s⁻¹; EC50 (HRV-14; Rhinovirus B, HRV14, 48 h): 13.5 µM
CC(=O)OCC=CC(CCC(N)=O)NC(=O)C(Cc1ccccc1)NC(=O)C(CC(C)C)NC(=O)OCc1ccccc1 (stereo not shown) [Compound 76]				CC50 at 2 days [1]: > 320 µM; EC50 (HRV-14; Rhinovirus B, HRV14, 48 h): > 320 µM
CC(C)CC(NC(=O)OCc1ccccc1)C(=O)NC(Cc1ccccc1)C(=O)NC(C=CCOc1ccc(C(F)(F)F)cc1)CCC(N)=O (stereo not shown) [Compound 77]				CC50 at 2 days [1]: > 320 µM; EC50 (HRV-14; Rhinovirus B, HRV14, 48 h): > 320 µM
COc1cccc2[nH]c(C(=O)NC(Cc3ccc(F)cc3)C(=O)NC(/C=C/C(=O)O)CCC(N)=O)cc12 (stereo not shown) [Compound 45]				CC50 at 2 days [1]: > 100 µM; EC50 (HRV-14; Rhinovirus B, HRV14, 48 h): > 100 µM
CC(C)C[C@H](NC(=O)OCc1ccccc1)C(=O)N[C@@H](Cc1ccccc1)C(=O)N[C@H](/C=C/c1ccno1)CCC(N)=O [Compound 150]	573 M⁻¹ s⁻¹	> 320		CC50 (HI-HeLa cells; [3]): > 320 µM
CCCS(=O)(=O)N[C@@H](Cc1ccccc1)C(=O)N[C@H](/C=C/C(=O)OCC)CCC(N)=O [Compound 31, Ethyl-3-[N-(Propylsulfonyl)-L-Phe-L-Gln]-E-Propenoate]	21 M⁻¹ s⁻¹	50.1	> 100	INHIB (percent inhibition) [2, 4]: 25(10) percent
CCOC(=O)/C=C/[C@H](CCC(N)=O)NC(=O)[C@H](Cc1ccccc1)NS(=O)(=O)c1ccccc1 [Compound 34, Ethyl-3-[N-(Phenylsulfonyl)-L-Phe-L-Gln]-E-Propenoate]	34 M⁻¹ s⁻¹	100		CC50 (HI-HeLa cells; [3]): > 100 µM; INHIB (percent inhibition) [2, 4]: 10(10) percent
CCOC(=O)/C=C/[C@H](CCC(N)=O)NC(=O)[C@H](Cc1cccc(F)c1)NC(=O)c1cc2c(OC)cccc2[nH]1 [Compound 28, Ethyl-3-[N-(4-Methoxyindole-2-Carbonyl)-L-(3-F-Phe)-L-Gln]-E-Propenoate]	4,000 M-1 sec-1	4.5	63.1	Ki [2, 5]: 57 µM
CC(C)C[C@H](NC(=O)OCc1ccccc1)C(=O)N[C@@H](Cc1ccccc1)C(=O)N[C@H](/C=C/C(=O)c1ccc2c(c1)OCO2)CCC(N)=O [Compound 46]	120,000 M-1 sec-1	3.2	45	
CCOC(=O)/C=C/[C@H](CCC(N)=O)NC(=O)[C@H](Cc1ccc(F)cc1)NC(=O)[C@@H](NC(=O)SC1CCCC1)C(C)C [Compound 184]	59,900 M-1 sec-1	0.19	> 100	
CC(C)C[C@H](NC(=O)OCc1ccccc1)C(=O)N[C@@H](Cc1ccccc1)C(=O)N[C@H](/C=C/C(=O)N1CCc2cccc(S(C)(=O)=O)c21)CCC(N)=O [Compound 95]	<1000 M⁻¹ s⁻¹	> 320		CC50 (HI-HeLa cells; [3]): > 320 µM
CCNC(=O)/C=C/[C@H](CCC(N)=O)NC(=O)[C@H](Cc1ccccc1)NC(=O)[C@H](CC(C)C)NC(=O)OCc1ccccc1 [Compound 6, N-Ethyl-3-(CBZ-L-Leu-L-Phe-L-Gln)-E-Propenamide]	350 M⁻¹ s⁻¹	> 320	> 320	Ki [2, 5]: 32 µM
CCOC(=O)/C=C/[C@H](CCC(N)=O)NC(=O)[C@H](Cc1ccc(COC)cc1)NC(=O)[C@H](CC(C)C)NC(=O)OCc1ccccc1 [Compound 140]	7,122 M-1 sec-1	39	> 320	
CCOC(=O)/C=C/[C@H](CCC(N)=O)NC(=O)CNC(=O)[C@H](CC(C)C)NC(=O)OCc1ccccc1 [Compound 99]		141	> 320	INHIB (percent inhibition) ([2]; RVP serotype-14): 10 (50) percent
CCOC(=O)/C=C/[C@H](CCC(N)=O)NC(=O)[C@H](Cc1ccc(C(N)=O)cc1)NC(=O)[C@H](CC(C)C)NC(=O)OCc1ccccc1 [Compound 133]	9,600 M-1 sec-1	> 177	177	
CCOC(=O)/C=C/C(CCC(N)=O)NC(=O)C(Cc1ccc(Cl)cc1)NC(=O)c1cc2c(OC)cccc2n1C(c1ccccc1)(c1ccccc1)c1ccccc1 [Compound 29, Ethyl-3-[N-(1-Tr-4-Methoxyindole-2-Carbonyl)-L-(4-Cl-Phe)-L-Gln]-E-Propenoate]				CC50 at 2 days [1]: 500 µM; EC50 (HRV-14; Rhinovirus B, HRV14, 48 h): 27 µM
CC(=O)N1CC/C(=C\[C@H](CCC(N)=O)NC(=O)[C@H](Cc2ccccc2)NC(=O)[C@H](CC(C)C)NC(=O)OCc2ccccc2)C1=O [Compound 164]	155,500 M-1 sec-1	0.71	> 100	
CCOC(=O)/C=C/[C@H](CNC(N)=O)NC(=O)[C@H](Cc1ccccc1)NC(=O)[C@H](CC(C)C)NC(=O)OCc1ccccc1 [Compound 16, Ethyl-3-[CBZ-L-Leu-L-Phe-L-(N-carbamyl-amino)-Ala]-E-Propenoate]	3,500 M-1 sec-1	32	> 100	INHIB (percent inhibition) ([2]; RVP serotype-14, […] compound): 40(0.25) percent
CCOC(=O)/C=C/[C@H](CCC(N)=O)NC(=O)[C@H](CSCC)NC(=O)[C@H](CC(C)C)NC(=O)OCc1ccccc1 [Compound 143]	2,963 M-1 sec-1	10	> 320	
CC(C)C[C@H](NC(=O)OCc1ccccc1)C(=O)N[C@@H](Cc1ccccc1)C(=O)N[C@H](/C=C/C(=O)N(C)c1ccccc1)CCC(N)=O [Compound 60]	575 M⁻¹ s⁻¹	158	> 320	Ki [2, 5]: 5 µM
CCOC(=O)/C=C/[C@H](CCC(N)=O)NC(=O)[C@H](Cc1ccccc1)NC(=O)OCc1ccccc1 [Compound 30, Ethyl-3-(CBZ-L-Phe-L-Gln)-E-Propenoate]	430 M⁻¹ s⁻¹	5.6	100	Ki [2, 5]: 373 µM
CCOC(=O)/C=C/[C@H](CCC(N)=O)NC(=O)[C@H](Cc1ccccc1)NC(=O)[C@H](CC(C)C)NC(=O)c1ccc(C(=O)NC)cc1 [Compound 129]	230,000 M-1 sec-1	> 320	> 320	
CCOC(=O)/C(C)=C/[C@H](CCC(N)=O)NC(=O)[C@H](Cc1ccccc1)NC(=O)[C@@H](NC(=O)SCC)C(C)(C)C [Compound 168, Ethyl-2-Methyl-3-[Ethylthiocarbonyl-L-α-(t-Butyl-Gly)-L-Phe-L-Gln]-E-Propenoate]	37,800 M-1 sec-1	0.32	> 100	
CCOC(=O)/C=C/[C@H](CCC(N)=O)NC(=O)[C@H](Cc1ccccc1)NC(=O)[C@H](CC(C)C)NC(=O)C1CCCC1 [Compound 116]	23,670 M-1 sec-1	0.6	> 320	
CCOC(=O)C=CC(CCC(N)=O)NC(=O)C(Cc1ccccc1)NC(=O)C(NC(=O)SC1CCCC1)C(C)(C)[S+](C)[O-] (mixture of isomers) [Compound 179, Ethyl-3-(Cyclopentylthiocarbonyl-L-[S(O)-Me-Pen]-L-Phe-L-Gln)-E-Propenoate]	300,000 M-1 sec-1	1.78	> 100	Ki [2, 5]: 0.36 µM
